Where two headings read alike, the source gives them in different places. Marks after values point to notes of the source that are not given here. One block for each compound: values may come before it. *1 amine or outer side, *2 acyl side, *3 side chain or, on linkers, in order; H or OH if unused. Where a SMILES comes first, the peptide text is derived from it. Bridges are numbered along the chain shown (N, C = ends). Where no end group is shown, it is not given here. [ ]: non-standard residue; d: D form. Phe(Nα-(CH2)3CO) = O=C([C@H](Cc1ccccc1)N(CCCC(=O)[*:3])[*:1])[*:2]; N(2-aminoethyl)Phe = O=C([C@H](Cc1ccccc1)N(CCN[*:3])[*:1])[*:2]
Assays:
PAMPA-GIT permeability = conditions: pH 7.4, 4 hours
Caco-2 cells [1] = experiment: Caco-2 permeability study (Examples 1-4); conditions: for Papp AB / Papp BA: Table 3, n = 3; for Caco-2 permeability: qualitative
[2] = Log D determination (octanol/PBS pH 7.4); conditions: pH 7.4, octanol/PBS
[3] = Caco-2 A-B and B-A permeability with/without verapamil (Example 6); conditions: human, Caco-2, pH 7.4
Caco-2 cells [4] = experiment: as above; conditions: 10 μM, 90 min, no verapamil
human αvβ6-Integrin = target: T1, human αvβ6-Integrin (Homo sapiens, UniProt P06756+P18564, DEL708-788); experiment: Integrin binding assay (solid-phase), αvβ6; conditions: Table 1; read-out: αvβ6, IC50
T1 construct: purchased R&D

[5] = for Mass retention / Permeability, Mean / Permeability, replicate 1 / Permeability, replicate 2 / Permeability, replicate 3: PAMPA, pH 7.4
somatostatin receptors = conditions: SSTR subtypes; cited from earlier work
[6] = test system: amylase and lipase release from the pancreas; conditions: bombesin- and caerulein-induced; cited from earlier work
in vitro [7] = conditions: human, Caco-2, Papp AB
[8] = for Papp A→B: Caco-2, Papp (AB); for Papp B→A: Caco-2, Papp (BA)
[9] = pH 7.4, LogD, pH 7.4 (mean / reported value)
in vitro [10] = conditions: human, Caco-2, pH 7.4, Net efflux (quotient of Papp (BA) to Papp (AB))

T1 sequence (P06756 31-992 limits assumed, stated change not applied): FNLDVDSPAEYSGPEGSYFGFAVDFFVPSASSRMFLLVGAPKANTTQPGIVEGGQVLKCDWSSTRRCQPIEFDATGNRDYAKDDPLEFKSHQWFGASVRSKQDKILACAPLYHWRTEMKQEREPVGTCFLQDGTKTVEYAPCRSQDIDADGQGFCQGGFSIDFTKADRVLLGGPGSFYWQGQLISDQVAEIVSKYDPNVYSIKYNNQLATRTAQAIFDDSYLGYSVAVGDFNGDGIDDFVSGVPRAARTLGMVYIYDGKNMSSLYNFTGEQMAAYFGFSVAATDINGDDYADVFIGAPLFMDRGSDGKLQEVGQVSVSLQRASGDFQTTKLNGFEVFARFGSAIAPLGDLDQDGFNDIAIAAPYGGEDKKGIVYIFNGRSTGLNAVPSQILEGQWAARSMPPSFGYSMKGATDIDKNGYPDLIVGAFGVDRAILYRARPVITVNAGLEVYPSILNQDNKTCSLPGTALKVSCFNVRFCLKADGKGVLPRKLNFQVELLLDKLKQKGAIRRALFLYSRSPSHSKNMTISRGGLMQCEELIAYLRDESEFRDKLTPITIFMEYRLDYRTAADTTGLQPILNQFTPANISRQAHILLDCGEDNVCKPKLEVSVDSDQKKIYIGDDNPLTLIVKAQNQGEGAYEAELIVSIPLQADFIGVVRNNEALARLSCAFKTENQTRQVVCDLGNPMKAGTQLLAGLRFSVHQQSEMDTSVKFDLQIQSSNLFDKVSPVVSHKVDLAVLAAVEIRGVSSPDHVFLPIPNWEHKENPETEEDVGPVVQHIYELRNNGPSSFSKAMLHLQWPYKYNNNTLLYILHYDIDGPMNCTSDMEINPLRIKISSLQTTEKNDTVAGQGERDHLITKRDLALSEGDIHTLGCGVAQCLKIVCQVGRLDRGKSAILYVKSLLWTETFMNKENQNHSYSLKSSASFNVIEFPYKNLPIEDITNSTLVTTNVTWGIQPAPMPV
T1 sequence (P18564 22-707 limits assumed, stated change not applied): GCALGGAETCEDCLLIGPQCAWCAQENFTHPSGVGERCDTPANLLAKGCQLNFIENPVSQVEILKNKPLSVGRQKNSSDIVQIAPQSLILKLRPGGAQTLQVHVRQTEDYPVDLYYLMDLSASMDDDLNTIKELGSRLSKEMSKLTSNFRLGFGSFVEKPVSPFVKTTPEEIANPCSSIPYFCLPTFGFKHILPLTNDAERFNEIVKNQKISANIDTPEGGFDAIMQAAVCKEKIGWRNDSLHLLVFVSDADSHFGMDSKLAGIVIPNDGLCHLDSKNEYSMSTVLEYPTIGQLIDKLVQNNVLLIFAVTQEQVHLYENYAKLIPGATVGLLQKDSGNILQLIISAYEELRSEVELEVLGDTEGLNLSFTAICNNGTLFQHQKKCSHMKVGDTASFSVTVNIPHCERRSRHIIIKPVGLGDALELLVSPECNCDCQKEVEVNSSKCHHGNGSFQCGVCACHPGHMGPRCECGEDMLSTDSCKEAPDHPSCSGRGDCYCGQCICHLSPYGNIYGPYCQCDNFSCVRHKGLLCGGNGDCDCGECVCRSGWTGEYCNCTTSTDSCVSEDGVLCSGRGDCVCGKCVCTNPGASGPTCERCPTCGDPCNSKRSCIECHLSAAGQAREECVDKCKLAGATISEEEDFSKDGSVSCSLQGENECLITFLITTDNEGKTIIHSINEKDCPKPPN

Compound: CC(C)[C@@H]1C(=O)N[C@@H](CCCNC(=N)N)C(=O)NCC(=O)N[C@@H](CC(=O)O)C(=O)N[C@@H](C)C(=O)N(C)[C@@H](C)C(=O)N1C [peptide 29, c(*vRGDA*A)]
- Mass retention (PAMPA-GIT permeability): 15%
- Permeability, Mean (PAMPA-GIT permeability): <−7 Log10[10^−6 cm/s]
- Permeability, replicate 1 (PAMPA-GIT permeability): <−7 Log10[10^−6 cm/s]
- Permeability, replicate 2 (PAMPA-GIT permeability): <−7 Log10[10^−6 cm/s]
- Permeability, replicate 3 (PAMPA-GIT permeability): <−7 Log10[10^−6 cm/s]
- efflux ratio (Caco-2 cells [1]; Table 3): 2.14
- Papp AB (Caco-2 cells [1]): 0.07 ± 0.01 cm/s × 10^6
- Papp BA (Caco-2 cells [1]): 0.15 ± 0.01 cm/s × 10^6
- Caco-2 permeability (Caco-2 cells [1]): significant lower permeability
- logD ([2]; pH 7.4, LogD, pH 7.4 (mean in parentheses below reported bound)): -2.84
- LogD, pH 7.4 (mean / reported value) [2]: <−1
- efflux ratio at 90 min, 10 µM [3]: 0.4
- Papp (AB), Mean (Caco-2 cells [4]): 0.7 10^−6 cm/s
- Papp (AB), replicate 1 (Caco-2 cells [4]): 1.0 10^−6 cm/s
- Papp (AB), replicate 2 (Caco-2 cells [4]): 0.2 10^−6 cm/s
- Papp (AB), replicate 3 (Caco-2 cells [4]): 0.9 10^−6 cm/s
- Papp (BA), Mean (Caco-2 cells [4]): 0.3 10^−6 cm/s
- Papp (BA), replicate 1 (Caco-2 cells [4]): 0.3 10^−6 cm/s
- Papp (BA), replicate 2 (Caco-2 cells [4]): 0.4 10^−6 cm/s
- Papp (BA), replicate 3 (Caco-2 cells [4]): 0.2 10^−6 cm/s

Compound: PTR-3046: backbone cyclic somatostatin analog (SEQ ID NO: 28) ([N(2-aminoethyl)Phe]Y[dW]KV[Phe(Nα-(CH2)3CO)]T-NH2; bridge 1-6; also: backbone cyclisation between building units)
- somatostatin receptor selectivity (somatostatin receptors): selective toward the SSTR5
- inhibition of amylase and lipase release [6]: inhibits bombesin- and caerulein-induced amylase and lipase release from the pancreas

Compound: C[C@@H]1NC(=O)[C@H](CC(=O)O)NC(=O)CNC(=O)[C@@H](CCCNC(=N)N)NC(=O)[C@H](C)N(C)C(=O)[C@H](C)N(C)C1=O [compound 23, c(rGDA*A*A)]
- Papp AB (Caco-2 cells [1]): 0.61 ± 0.09 cm/s × 10^6
- Papp BA (Caco-2 cells [1]): 1.34 ± 0.03 cm/s × 10^6
- Caco-2 permeability (Caco-2 cells [1]): significant lower permeability

Compound: CCCCCCOC(=O)N=C(N)NCCC[C@@H]1NC(=O)[C@@H](C(C)C)N(C)C(=O)[C@H](C)N(C)C(=O)[C@H](C)NC(=O)[C@H](CC(=O)OC)NC(=O)CNC1=O [#29P-Hoc]
- PAMPA permeability [5]: low permeability
- Mass retention [5]: 10%
- Permeability, Mean [5]: <−7 Log10[10^−6 cm/s]
- Permeability, replicate 1 [5]: <−7 Log10[10^−6 cm/s]
- Permeability, replicate 2 [5]: <−7 Log10[10^−6 cm/s]
- Permeability, replicate 3 [5]: <−7 Log10[10^−6 cm/s]

Compound: CC(C)C[C@@H]1NC(=O)[C@H](CC(=O)O)NC(=O)CNC(=O)[C@H](CCCNC(=N)N)NC(=O)[C@H](Cc2ccccc2)NC(=O)[C@@H]2CCCN2C(=O)[C@@H]2CCCN2C(=O)[C@H](CC(C)C)NC(=O)[C@H](C)NC1=O [OM1186] (cyclo(RGDLALPPF))
- Papp A→B ([8]; Mean): < 0.3 ×10⁻⁶ cm/s
- Papp A→B ([8]; replicate 1): < 0.6 ×10⁻⁶ cm/s
- Papp A→B ([8]; replicate 2): < 0.3 ×10⁻⁶ cm/s
- Papp B→A ([8]; Mean): 0.2 ×10⁻⁶ cm/s
- Papp B→A ([8]; replicate 1): 0.1 ×10⁻⁶ cm/s
- Papp B→A ([8]; replicate 2): 0.2 ×10⁻⁶ cm/s
- Papp B→A ([8]; replicate 3): 0.3 ×10⁻⁶ cm/s
- logD [9]: -0.19
- Mass retention [5]: 13%
- Permeability, Mean [5]: <−7 Log10[10^−6 cm/s]
- Permeability, replicate 1 [5]: <−7 Log10[10^−6 cm/s]
- Permeability, replicate 2 [5]: <−7 Log10[10^−6 cm/s]
- Permeability, replicate 3 [5]: <−7 Log10[10^−6 cm/s]
- efflux ratio at 90 min, 10 µM (in vitro [10]): 0.6

Other lines, results leading:

- IC50 (human αvβ6-Integrin): 25 ± 3 nM
Compound: C[C@@H]1NC(=O)[C@H](CC(=O)O)NC(=O)CNC(=O)[C@@H](CCCNC(=N)N)N(C)C(=O)[C@H](Cc2ccccc2)NC(=O)[C@H](C)N(C)C1=O [compound 33, c(*rGDA*AF)]

- Mass retention ([5]; 4 h, 50 μM): 56%
- Permeability, Mean [5]: −4.5* Log10[10^−6 cm/s]
- Permeability, replicate 1 [5]: −4.6 Log10[10^−6 cm/s]
- Permeability, replicate 2 [5]: −4.5 Log10[10^−6 cm/s]
- Permeability, replicate 3 [5]: −4.5 Log10[10^−6 cm/s]
Compound: C=C[C@H]1C[N@@]2CC[C@H]1C[C@@H]2[C@@H](O)c1ccnc2ccc(OC)cc12 [Quinidine, reference compound]

- Papp A→B at 150 min (in vitro [7]): 1.89 ± 0.11 ×10⁻⁶ cm/s
Compound: COCCc1ccc(OCC(O)CNC(C)C)cc1 (stereo not shown) [metoprolol]
